In PMC8885417, “Pharmacological targeting of MTHFD2 suppresses acute myeloid leukemia by inducing thymidine depletion and replication stress” (Nature Cancer, 2022):

Key:
Adenosine A2A = biological target: T1, Adenosine A2A (Homo sapiens, UniProt P29274); test: biochemical; design: Eurofins SafetyScreen44 panel of binding and enzyme assays, mean per cent inhibition of duplicate; conditions: read-out: Inhibition (%) at 10 µM TH9619
T1 construct: gene ADORA2A
Source text: (§1) Bars represent the mean change in protein melting temperature (ΔTm) of one experiment performed in triplicate. […] Bars represent mean inhibition in percentage of one experiment performed in duplicate.

Adrenergic ß1 = biological target: T2, Adrenergic ß1 (Homo sapiens, UniProt P08588); test: biochemical; design: Eurofins SafetyScreen44 panel of binding and enzyme assays, mean per cent inhibition of duplicate; conditions: read-out: Inhibition (%) at 10 µM TH9619
T2 construct: gene ADRB1
Source text: as §1

Adrenergic ß2 = biological target: T3, Adrenergic ß2 (Homo sapiens, UniProt P07550); test: biochemical; design: Eurofins SafetyScreen44 panel of binding and enzyme assays, mean per cent inhibition of duplicate; conditions: read-out: Inhibition (%) at 10 µM TH9619
T3 construct: gene ADRB2
Source text: as §1

Adrenergic α1A = biological target: T4, Adrenergic α1A (Homo sapiens, UniProt P35348); test: biochemical; design: Eurofins SafetyScreen44 panel of binding and enzyme assays, mean per cent inhibition of duplicate; conditions: read-out: Inhibition (%) at 10 µM TH9619
T4 construct: gene ADRA1A
Source text: as §1

Adrenergic α2A = biological target: T5, Adrenergic α2A (Homo sapiens, UniProt P08913); test: biochemical; design: Eurofins SafetyScreen44 panel of binding and enzyme assays, mean per cent inhibition of duplicate; conditions: read-out: Inhibition (%) at 10 µM TH9619
T5 construct: gene ADRA2A
T5 sequence (P08913 whole entry): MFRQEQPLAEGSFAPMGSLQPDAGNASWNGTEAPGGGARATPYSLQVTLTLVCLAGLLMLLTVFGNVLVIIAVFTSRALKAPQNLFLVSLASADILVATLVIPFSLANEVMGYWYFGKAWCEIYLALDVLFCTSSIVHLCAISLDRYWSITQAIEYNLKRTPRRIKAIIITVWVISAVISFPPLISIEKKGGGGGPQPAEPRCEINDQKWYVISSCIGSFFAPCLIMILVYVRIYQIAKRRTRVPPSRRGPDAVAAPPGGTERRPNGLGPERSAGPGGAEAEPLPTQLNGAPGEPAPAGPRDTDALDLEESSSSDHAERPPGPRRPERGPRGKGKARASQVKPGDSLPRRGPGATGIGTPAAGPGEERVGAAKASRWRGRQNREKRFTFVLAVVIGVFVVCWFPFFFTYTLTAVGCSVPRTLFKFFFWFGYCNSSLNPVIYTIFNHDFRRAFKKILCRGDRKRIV
Source text: as §1

Androgen (Testosterone) = biological target: T6, Androgen (Testosterone) (Homo sapiens, UniProt P10275); test: biochemical; design: Eurofins SafetyScreen44 panel of binding and enzyme assays, mean per cent inhibition of duplicate; conditions: read-out: Inhibition (%) at 10 µM TH9619
T6 construct: gene AR
Source text: as §1

Cannabinoid CB1 = biological target: T7, Cannabinoid CB1 (Homo sapiens, UniProt P21554); test: biochemical; design: Eurofins SafetyScreen44 panel of binding and enzyme assays, mean per cent inhibition of duplicate; conditions: read-out: Inhibition (%) at 10 µM TH9619
T7 construct: gene CNR1
T7 sequence (P21554 whole entry): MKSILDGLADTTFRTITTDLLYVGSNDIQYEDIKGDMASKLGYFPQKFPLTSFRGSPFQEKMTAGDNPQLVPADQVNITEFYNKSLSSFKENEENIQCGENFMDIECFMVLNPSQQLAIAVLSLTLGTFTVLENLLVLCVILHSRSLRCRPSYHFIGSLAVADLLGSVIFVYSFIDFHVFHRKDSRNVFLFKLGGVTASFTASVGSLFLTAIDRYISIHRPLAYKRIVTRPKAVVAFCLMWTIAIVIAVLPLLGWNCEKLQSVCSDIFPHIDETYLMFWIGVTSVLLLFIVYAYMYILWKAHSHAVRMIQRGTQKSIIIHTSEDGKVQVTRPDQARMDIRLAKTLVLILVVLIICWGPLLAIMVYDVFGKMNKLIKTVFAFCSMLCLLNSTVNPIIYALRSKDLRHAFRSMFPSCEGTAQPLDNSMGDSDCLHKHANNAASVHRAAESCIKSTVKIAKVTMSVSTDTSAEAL
Source text: as §1

Cannabinoid CB2 = biological target: T8, Cannabinoid CB2 (Homo sapiens, UniProt P34972); test: biochemical; design: Eurofins SafetyScreen44 panel of binding and enzyme assays, mean per cent inhibition of duplicate; conditions: read-out: Inhibition (%) at 10 µM TH9619
T8 construct: gene CNR2
T8 sequence (P34972 whole entry): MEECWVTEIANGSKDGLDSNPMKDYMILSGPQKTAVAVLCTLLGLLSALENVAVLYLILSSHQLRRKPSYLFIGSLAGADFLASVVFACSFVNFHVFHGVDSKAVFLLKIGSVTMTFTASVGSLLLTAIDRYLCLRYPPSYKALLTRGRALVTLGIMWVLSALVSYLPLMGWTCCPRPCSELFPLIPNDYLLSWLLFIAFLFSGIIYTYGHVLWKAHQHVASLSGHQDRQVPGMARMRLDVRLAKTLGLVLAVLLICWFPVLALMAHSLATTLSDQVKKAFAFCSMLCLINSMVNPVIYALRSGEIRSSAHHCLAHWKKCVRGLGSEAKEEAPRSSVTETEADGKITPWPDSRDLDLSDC
Source text: as §1

[1] = biological target: T9, Cholecystokinin CCK1 (CCKA) (Homo sapiens, UniProt P32238); test: biochemical; design: Eurofins SafetyScreen44 panel of binding and enzyme assays, mean per cent inhibition of duplicate; conditions: read-out: Inhibition (%) at 10 µM TH9619
T9 construct: gene CCKAR
Source text: as §1

[2] = biological target: T10, Cholinesterase,Acetyl, ACES (Homo sapiens, UniProt P22303); test: biochemical; design: Eurofins SafetyScreen44 panel of binding and enzyme assays, mean per cent inhibition of duplicate; conditions: read-out: Inhibition (%) at 10 µM TH9619
T10 construct: gene ACHE
Source text: as §1

Cyclooxygenase COX-1 = biological target: T11, Cyclooxygenase COX-1 (Homo sapiens, UniProt P23219); test: biochemical; design: Eurofins SafetyScreen44 panel of binding and enzyme assays, mean per cent inhibition of duplicate; conditions: read-out: Inhibition (%) at 10 µM TH9619
T11 construct: gene PTGS1
Source text: as §1

Cyclooxygenase COX-2 = biological target: T12, Cyclooxygenase COX-2 (Homo sapiens, UniProt P35354); test: biochemical; design: Eurofins SafetyScreen44 panel of binding and enzyme assays, mean per cent inhibition of duplicate; conditions: read-out: Inhibition (%) at 10 µM TH9619
T12 construct: gene PTGS2
Source text: as §1

Dopamine D1 = biological target: T13, Dopamine D1 (Homo sapiens, UniProt P21728); test: biochemical; design: Eurofins SafetyScreen44 panel of binding and enzyme assays, mean per cent inhibition of duplicate; conditions: read-out: Inhibition (%) at 10 µM TH9619
T13 construct: gene DRD1
Source text: as §1

Dopamine D2S = biological target: T14, Dopamine D2S (Homo sapiens, UniProt P14416); test: biochemical; design: Eurofins SafetyScreen44 panel of binding and enzyme assays, mean per cent inhibition of duplicate; conditions: read-out: Inhibition (%) at 10 µM TH9619
T14 construct: gene DRD2; isoform D2S (short)
Source text: as §1

Endothelin ETA = biological target: T15, Endothelin ETA (Homo sapiens, UniProt P25101); test: biochemical; design: Eurofins SafetyScreen44 panel of binding and enzyme assays, mean per cent inhibition of duplicate; conditions: read-out: Inhibition (%) at 10 µM TH9619
T15 construct: gene EDNRA
Source text: as §1

Glucocorticoid = biological target: T16, Glucocorticoid (Homo sapiens, UniProt P04150); test: biochemical; design: Eurofins SafetyScreen44 panel of binding and enzyme assays, mean per cent inhibition of duplicate; conditions: read-out: Inhibition (%) at 10 µM TH9619
T16 construct: gene NR3C1
Source text: as §1

Histamine H1 = biological target: T17, Histamine H1 (Homo sapiens, UniProt P35367); test: biochemical; design: Eurofins SafetyScreen44 panel of binding and enzyme assays, mean per cent inhibition of duplicate; conditions: read-out: Inhibition (%) at 10 µM TH9619
T17 construct: gene HRH1
Source text: as §1

Histamine H2 = biological target: T18, Histamine H2 (Homo sapiens, UniProt P25021); test: biochemical; design: Eurofins SafetyScreen44 panel of binding and enzyme assays, mean per cent inhibition of duplicate; conditions: read-out: Inhibition (%) at 10 µM TH9619
T18 construct: gene HRH2
Source text: as §1

Monoamine Oxidase MAO-A = biological target: T19, Monoamine Oxidase MAO-A (Homo sapiens, UniProt P21397); test: biochemical; design: Eurofins SafetyScreen44 panel of binding and enzyme assays, mean per cent inhibition of duplicate; conditions: read-out: Inhibition (%) at 10 µM TH9619
T19 construct: gene MAOA
Source text: as §1

Muscarinic M1 = biological target: T20, Muscarinic M1 (Homo sapiens, UniProt P11229); test: biochemical; design: Eurofins SafetyScreen44 panel of binding and enzyme assays, mean per cent inhibition of duplicate; conditions: read-out: Inhibition (%) at 10 µM TH9619
T20 construct: gene CHRM1
T20 sequence (P11229 whole entry): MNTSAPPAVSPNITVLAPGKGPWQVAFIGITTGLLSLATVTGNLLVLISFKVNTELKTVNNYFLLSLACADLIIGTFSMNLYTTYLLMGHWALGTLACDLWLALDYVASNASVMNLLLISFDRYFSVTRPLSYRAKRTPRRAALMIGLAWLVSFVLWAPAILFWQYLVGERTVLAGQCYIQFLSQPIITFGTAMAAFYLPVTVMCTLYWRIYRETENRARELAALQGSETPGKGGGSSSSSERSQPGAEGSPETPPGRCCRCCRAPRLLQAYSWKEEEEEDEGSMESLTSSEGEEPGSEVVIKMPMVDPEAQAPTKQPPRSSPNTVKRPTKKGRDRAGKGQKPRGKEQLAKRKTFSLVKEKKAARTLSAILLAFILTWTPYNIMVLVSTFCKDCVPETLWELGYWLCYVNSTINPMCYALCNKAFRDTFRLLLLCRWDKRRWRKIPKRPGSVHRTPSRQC
Source text: as §1

Muscarinic M2 = biological target: T21, Muscarinic M2 (Homo sapiens, UniProt P08172); test: biochemical; design: Eurofins SafetyScreen44 panel of binding and enzyme assays, mean per cent inhibition of duplicate; conditions: read-out: Inhibition (%) at 10 µM TH9619
T21 construct: gene CHRM2
Source text: as §1

Muscarinic M3 = biological target: T22, Muscarinic M3 (Homo sapiens, UniProt P20309); test: biochemical; design: Eurofins SafetyScreen44 panel of binding and enzyme assays, mean per cent inhibition of duplicate; conditions: read-out: Inhibition (%) at 10 µM TH9619
T22 construct: gene CHRM3
Source text: as §1

[3] = biological target: T23, Nicotinic Acetylcholine a4ß2, Cytisine (Homo sapiens, UniProt P17787+P43681); test: biochemical; design: Eurofins SafetyScreen44 panel of binding and enzyme assays, mean per cent inhibition of duplicate; conditions: read-out: Inhibition (%) at 10 µM TH9619
T23 construct: gene CHRNB2; cytisine site
Source text: as §1

Opiate µ (OP3, MOP) = biological target: T24, Opiate µ (OP3, MOP) (Homo sapiens, UniProt P35372); test: biochemical; design: Eurofins SafetyScreen44 panel of binding and enzyme assays, mean per cent inhibition of duplicate; conditions: read-out: Inhibition (%) at 10 µM TH9619
T24 construct: gene OPRM1
Source text: as §1

Opiate κ (OP2, KOP) = biological target: T25, Opiate κ (OP2, KOP) (Homo sapiens, UniProt P41145); test: biochemical; design: Eurofins SafetyScreen44 panel of binding and enzyme assays, mean per cent inhibition of duplicate; conditions: read-out: Inhibition (%) at 10 µM TH9619
T25 construct: gene OPRK1
Source text: as §1

Phosphodiesterase PDE3A = Phosphodiesterase PDE3A (Homo sapiens, UniProt Q14432); test: biochemical; design: Eurofins SafetyScreen44 panel of binding and enzyme assays, mean per cent inhibition of duplicate; conditions: read-out: Inhibition (%) at 10 µM TH9619
Source text: as §1

Phosphodiesterase PDE4D2 = biological target: T26, Phosphodiesterase PDE4D2 (Homo sapiens, UniProt Q08499); test: biochemical; design: Eurofins SafetyScreen44 panel of binding and enzyme assays, mean per cent inhibition of duplicate; conditions: read-out: Inhibition (%) at 10 µM TH9619
T26 construct: gene PDE4D; isoform PDE4D2
Source text: as §1

[4] = biological target: T27, Potassium Channel hERG, [3H]Dofetilide (Homo sapiens, UniProt Q12809); test: in vitro; design: Eurofins SafetyScreen44 panel of binding and enzyme assays, mean per cent inhibition of duplicate
T27 construct: gene KCNH2; dofetilide site
Source text: as §1

[5] = biological target: Protein Tyrosine Kinase, LCK (Homo sapiens, UniProt P06239); test: biochemical; design: Eurofins SafetyScreen44 panel of binding and enzyme assays, mean per cent inhibition of duplicate; conditions: read-out: Inhibition (%) at 10 µM TH9619
Source text: as §1

[6] = biological target: T28, Serotonin (5-Hydroxytryptamine) 5-HT1A (Homo sapiens, UniProt P08908); test: biochemical; design: Eurofins SafetyScreen44 panel of binding and enzyme assays, mean per cent inhibition of duplicate; conditions: read-out: Inhibition (%) at 10 µM TH9619
T28 construct: gene HTR1A
Source text: as §1

[7] = biological target: T29, Serotonin (5-Hydroxytryptamine) 5-HT1B (Homo sapiens, UniProt P28222); test: biochemical; design: Eurofins SafetyScreen44 panel of binding and enzyme assays, mean per cent inhibition of duplicate; conditions: read-out: Inhibition (%) at 10 µM TH9619
T29 construct: gene HTR1B
Source text: as §1

[8] = biological target: T30, Serotonin (5-Hydroxytryptamine) 5-HT2B (Homo sapiens, UniProt P41595); test: biochemical; design: Eurofins SafetyScreen44 panel of binding and enzyme assays, mean per cent inhibition of duplicate; conditions: read-out: Inhibition (%) at 10 µM TH9619
T30 construct: gene HTR2B
T30 sequence (P41595 whole entry): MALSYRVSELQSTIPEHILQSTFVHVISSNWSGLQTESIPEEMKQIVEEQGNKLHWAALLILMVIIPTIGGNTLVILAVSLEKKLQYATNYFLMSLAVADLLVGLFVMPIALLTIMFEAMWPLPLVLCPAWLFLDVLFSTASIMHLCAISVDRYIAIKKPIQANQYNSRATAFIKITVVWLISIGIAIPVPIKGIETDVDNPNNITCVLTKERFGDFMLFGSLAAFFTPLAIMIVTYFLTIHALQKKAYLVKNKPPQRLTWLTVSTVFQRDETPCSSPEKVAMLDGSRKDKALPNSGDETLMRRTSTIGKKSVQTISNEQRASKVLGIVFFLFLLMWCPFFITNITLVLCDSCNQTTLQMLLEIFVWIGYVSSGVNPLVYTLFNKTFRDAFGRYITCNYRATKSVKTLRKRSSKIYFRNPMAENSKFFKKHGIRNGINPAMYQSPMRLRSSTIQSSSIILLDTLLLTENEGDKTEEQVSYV
Source text: as §1

[9] = biological target: T31, Serotonin (5-Hydroxytryptamine) 5-HT3 (Homo sapiens, UniProt P46098); test: biochemical; design: Eurofins SafetyScreen44 panel of binding and enzyme assays, mean per cent inhibition of duplicate; conditions: read-out: Inhibition (%) at 10 µM TH9619
T31 construct: gene HTR3A
T31 sequence (P46098 whole entry): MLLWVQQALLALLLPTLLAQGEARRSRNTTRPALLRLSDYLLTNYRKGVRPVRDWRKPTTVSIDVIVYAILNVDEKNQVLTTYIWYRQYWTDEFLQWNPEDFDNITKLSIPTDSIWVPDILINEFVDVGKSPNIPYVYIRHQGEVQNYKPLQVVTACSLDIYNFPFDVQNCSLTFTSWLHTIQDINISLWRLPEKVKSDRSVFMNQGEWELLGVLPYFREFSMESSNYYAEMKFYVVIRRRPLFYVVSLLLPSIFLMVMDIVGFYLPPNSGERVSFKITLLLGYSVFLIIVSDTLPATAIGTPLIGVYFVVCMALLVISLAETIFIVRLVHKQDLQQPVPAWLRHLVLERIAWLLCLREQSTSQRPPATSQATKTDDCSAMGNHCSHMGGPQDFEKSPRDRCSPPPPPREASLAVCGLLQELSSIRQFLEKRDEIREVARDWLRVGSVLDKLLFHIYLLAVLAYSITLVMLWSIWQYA
Source text: as §1

[10] = biological target: T32, Transporter, Dopamine (DAT) (Homo sapiens, UniProt Q01959); test: biochemical; design: Eurofins SafetyScreen44 panel of binding and enzyme assays, mean per cent inhibition of duplicate; conditions: read-out: Inhibition (%) at 10 µM TH9619
T32 construct: gene SLC6A3
T32 sequence (Q01959 whole entry): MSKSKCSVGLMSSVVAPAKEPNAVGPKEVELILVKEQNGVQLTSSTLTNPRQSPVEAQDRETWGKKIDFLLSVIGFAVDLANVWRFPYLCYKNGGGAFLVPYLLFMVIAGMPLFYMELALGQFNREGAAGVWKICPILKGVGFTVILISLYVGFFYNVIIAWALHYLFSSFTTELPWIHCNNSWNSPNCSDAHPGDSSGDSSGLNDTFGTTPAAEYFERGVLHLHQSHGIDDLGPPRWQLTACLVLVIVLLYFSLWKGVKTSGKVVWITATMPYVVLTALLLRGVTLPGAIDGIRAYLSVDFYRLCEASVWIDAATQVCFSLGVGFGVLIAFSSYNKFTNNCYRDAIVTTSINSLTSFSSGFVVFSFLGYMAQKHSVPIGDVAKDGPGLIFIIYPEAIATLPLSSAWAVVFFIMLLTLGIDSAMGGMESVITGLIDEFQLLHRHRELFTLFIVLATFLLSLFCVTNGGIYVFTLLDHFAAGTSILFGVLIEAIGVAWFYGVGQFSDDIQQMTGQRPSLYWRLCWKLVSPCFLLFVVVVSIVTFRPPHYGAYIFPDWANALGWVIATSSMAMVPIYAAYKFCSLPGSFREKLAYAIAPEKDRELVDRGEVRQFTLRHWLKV
Source text: as §1

[11] = biological target: T33, Transporter, Norepinephrine (NET) (Homo sapiens, UniProt P23975); test: biochemical; design: Eurofins SafetyScreen44 panel of binding and enzyme assays, mean per cent inhibition of duplicate; conditions: read-out: Inhibition (%) at 10 µM TH9619
T33 construct: gene SLC6A2
Source text: as §1

[12] = biological target: T34, Transporter, Serotonin (5-Hydroxytryptamine) (SERT) (Homo sapiens, UniProt P31645); test: biochemical; design: Eurofins SafetyScreen44 panel of binding and enzyme assays, mean per cent inhibition of duplicate; conditions: read-out: Inhibition (%) at 10 µM TH9619
T34 construct: gene SLC6A4
Source text: as §1

Vasopressin V1A = biological target: T35, Vasopressin V1A (Homo sapiens, UniProt P37288); test: biochemical; design: Eurofins SafetyScreen44 panel of binding and enzyme assays, mean per cent inhibition of duplicate; conditions: read-out: Inhibition (%) at 10 µM TH9619
T35 construct: gene AVPR1A
Source text: as §1

MTHFD2L = MTHFD2L (Homo sapiens, UniProt Q9H903); test: biochemical activity assay; conditions: read-out: MTHFD2L IC50
MTHFD2L, sequence (Q9H903 whole entry): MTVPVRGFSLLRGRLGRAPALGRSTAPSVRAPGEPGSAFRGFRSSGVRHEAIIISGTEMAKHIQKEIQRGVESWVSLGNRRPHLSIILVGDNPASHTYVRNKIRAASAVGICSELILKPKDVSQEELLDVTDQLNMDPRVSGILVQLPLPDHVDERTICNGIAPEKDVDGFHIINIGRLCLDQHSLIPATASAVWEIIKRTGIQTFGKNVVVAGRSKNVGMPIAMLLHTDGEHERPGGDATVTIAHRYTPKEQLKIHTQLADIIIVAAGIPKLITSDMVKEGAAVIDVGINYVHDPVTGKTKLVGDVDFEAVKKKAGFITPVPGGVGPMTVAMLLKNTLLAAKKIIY

MTHFD1-(DC) = biological target: T36, MTHFD1-(DC) (Homo sapiens, UniProt P11586); test: biochemical activity assay
T36 construct: dehydrogenase/cyclohydrolase (DC) domain
T36 sequence (P11586 2-306 limits assumed): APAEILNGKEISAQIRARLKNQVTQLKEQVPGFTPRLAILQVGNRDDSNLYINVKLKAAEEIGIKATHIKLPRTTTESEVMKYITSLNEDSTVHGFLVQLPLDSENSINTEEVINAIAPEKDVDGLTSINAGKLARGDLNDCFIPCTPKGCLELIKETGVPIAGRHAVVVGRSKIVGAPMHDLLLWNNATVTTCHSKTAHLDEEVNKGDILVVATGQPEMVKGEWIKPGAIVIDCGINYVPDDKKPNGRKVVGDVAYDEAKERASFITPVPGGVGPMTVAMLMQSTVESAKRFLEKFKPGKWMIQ

MTHFD2 = MTHFD2 (Homo sapiens, UniProt P13995); test: cocrystal structure with NAD+; enzymatic IC50; CETSA; type: biochemical
MTHFD2, sequence (P13995 36-350): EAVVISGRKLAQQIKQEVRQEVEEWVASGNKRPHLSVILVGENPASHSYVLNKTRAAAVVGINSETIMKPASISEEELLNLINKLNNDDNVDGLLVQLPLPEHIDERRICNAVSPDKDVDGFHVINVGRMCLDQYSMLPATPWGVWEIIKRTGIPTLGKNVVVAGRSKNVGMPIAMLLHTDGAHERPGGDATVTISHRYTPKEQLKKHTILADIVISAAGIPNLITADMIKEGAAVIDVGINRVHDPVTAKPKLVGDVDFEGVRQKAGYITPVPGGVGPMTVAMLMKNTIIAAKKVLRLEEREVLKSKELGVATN

T1 sequence (P29274 whole entry): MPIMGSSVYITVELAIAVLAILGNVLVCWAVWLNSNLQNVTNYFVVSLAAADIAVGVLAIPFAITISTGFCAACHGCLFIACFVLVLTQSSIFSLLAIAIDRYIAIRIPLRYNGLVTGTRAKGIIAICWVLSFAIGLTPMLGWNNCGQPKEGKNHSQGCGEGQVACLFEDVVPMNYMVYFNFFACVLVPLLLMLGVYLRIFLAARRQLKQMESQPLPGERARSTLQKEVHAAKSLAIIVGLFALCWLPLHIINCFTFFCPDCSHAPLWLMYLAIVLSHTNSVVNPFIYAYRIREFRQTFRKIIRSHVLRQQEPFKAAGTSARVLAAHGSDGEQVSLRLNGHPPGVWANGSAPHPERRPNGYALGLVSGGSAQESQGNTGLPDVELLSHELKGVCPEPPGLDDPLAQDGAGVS

## Nc1nc(N)c(CC(=O)Nc2cnc(C(=O)N[C@@H](CCC(=O)O)C(=O)O)c(F)c2)c(=O)[nH]1 [TH9619]
Adenosine A2A
  inhibition at 10 µM: 11%
Adrenergic ß1
  inhibition at 10 µM: 0%
Adrenergic ß2
  inhibition at 10 µM: 1%
Adrenergic α1A
  inhibition at 10 µM: 9%
Adrenergic α2A
  inhibition at 10 µM: 9%
Androgen (Testosterone)
  inhibition at 10 µM: 3%
Cannabinoid CB1
  inhibition at 10 µM: 0%
Cannabinoid CB2
  inhibition at 10 µM: -3%
[1]
  inhibition at 10 µM: 7%
[2]
  inhibition at 10 µM: 21%
Cyclooxygenase COX-1
  inhibition at 10 µM: 9%
Cyclooxygenase COX-2
  inhibition at 10 µM: 16%
Dopamine D1
  inhibition at 10 µM: 5%
Dopamine D2S
  inhibition at 10 µM: 1%
Endothelin ETA
  inhibition at 10 µM: -7%
Glucocorticoid
  inhibition at 10 µM: 3%
Histamine H1
  inhibition at 10 µM: 7%
Histamine H2
  inhibition at 10 µM: -6%
Monoamine Oxidase MAO-A
  inhibition at 10 µM: 6%
Muscarinic M1
  inhibition at 10 µM: -7%
Muscarinic M2
  inhibition at 10 µM: -29%
Muscarinic M3
  inhibition at 10 µM: -2%
[3]
  inhibition at 10 µM: 2%
Opiate µ (OP3, MOP)
  inhibition at 10 µM: -10%
Opiate κ (OP2, KOP)
  inhibition at 10 µM: 5%
Phosphodiesterase PDE3A
  inhibition at 10 µM: -3%
Phosphodiesterase PDE4D2
  inhibition at 10 µM: -1%
[4]
  inhibition at 10 µM: 5%
[5]
  inhibition at 10 µM: 1%
[6]
  inhibition at 10 µM: 0%
[7]
  inhibition at 10 µM: -8%
[8]
  inhibition at 10 µM: 1%
[9]
  inhibition at 10 µM: -4%
[10]
  inhibition at 10 µM: -7%
[11]
  inhibition at 10 µM: -12%
[12]
  inhibition at 10 µM: 5%
Vasopressin V1A
  inhibition at 10 µM: -15%

## TH9028
MTHFD2L
  IC50: 27 nM
MTHFD1-(DC)
  IC50: 0.5 nM
MTHFD2
  IC50: 11 nM
